Where a name gives a salt, the structure may show the parent alone.

The subject of the test is NSCs. Description: Cell death observed in NSCs in 35-mm dishes. The test is classed as cell-based, human. An excerpt:
NSCs and dopaminergic neurons grown in 35-mm dishes were exposed to amiodarone HCl.

For the molecule `CCCCc1oc2ccccc2c1C(=O)c1cc(I)c(OCCN(CC)CC)c(I)c1` [Amiodarone Hydrochloride], the “time after drug exposure at which cell death was observed in NSCs” value (35-mm dishes) is 2 h. Also, the “cell death in NSCs” value (by 8 hours, 35-mm dishes) is “more than 90%”. Further, the “cell death in similarly treated NSCs” value (within one hour of drug administration) is reported as “massive cell death”.
